Legend:
lesion formation = assay: inhibition of 60% ethanol/150 mM hydrochloric acid-induced stomach lesion formation (Experiment 1); assay type: in vivo, Male SD rats; conditions: Rattus norvegicus, 1 h
Description: Male SD rats, weighing 200-300 g, were allowed to fast for 24 hours. One milliliter of 60% ethanol (v/v) in 150 mM hydrochloric acid was given orally 1 hour after oral or intraperitoneal administration of test compound as a suspension in 5% gum arabic, and the animals were killed with an overdose of ether 1 hour later. The stomachs were removed and opened along the greater curvature. The total length (mm) of each lesion was measured for use as the lesion index and inhibition (%) of lesion formation by the test compound was calculated by comparing with that of 5% gum arabic as control.
Geranylgeranylacetone (hereinafter abbreviated as GGA) was employed as a reference compound.

acid secretion = assay: inhibition of histamine-stimulated gastric acid secretion in perfused stomach (Experiment 2); assay type: in vivo, Male Jcl SD rats; conditions: intraduodenal, during 90 minutes after administration, histamine dihydrochloride 3 mg/kg/hr
Description: Male Jcl SD rats (body weight; about 300 g) were fast for 24 hours and anesthetized by urethane. Cannula was put into the trachea and into a jugular vein. After midline laparotomy, perfusion cannulae were introduced into the stomach through the pylorus and the esophagus. The animal was perfused with saline (1 ml/min) at 37° C. through the esophagus cannula. Perfusate was collected every 15 minutes through the pylorus cannula and titrated with 0.01N sodium hydroxide to measure acid secretion. Histamine dihydrochloride (3 mg/kg/hr) was infused through the jugular vein cannula and the test compound was administered intraduodenaly 90 minutes later. Acid output in perfusate every 15 minutes was measured in the same manner as described above. The rate of maximum inhibition (%) of acid secretion was calculated during 90 minutes after administration of the test compound compared with the acid output just before administration of the test compound.

[1] = ip, Intraperitoneal administration

SMILES	inhibition in vivo at 20 mg/kg (lesion formation; Oral administration)	inhibition in vivo at 20 mg/kg (lesion formation; [1])	also measured
CC(=O)NCC=C(C)CCC=C(C)CCC=C(C)CCC=C(C)C [Compound I-2, N-(3,7,11,15-Tetramethyl-2,6,10,14-hexadecatetraenyl)acetamide]	46.6%	–	inhibition in vivo at 10 mg/kg (lesion formation; [1]): 71.7%
COCC(=O)NCC=C(C)CCC=C(C)CCC=C(C)CCC=C(C)C [Compound I-4]	29.3%	88.4%	–
CC(C)=CCCC(C)=CCCC(C)=CCCC(C)=CCNC(=O)c1ccccc1 [Compound I-9]	–	64.2%	–
CC(C)=CCCC(C)=CCCC(C)=CCCC(C)=CCNC(=O)c1ccco1 [Compound I-12]	–	–	inhibition in vivo at 10 mg/kg (lesion formation; [1]): 39.4%
CC(C)=CCCC(C)=CCCC(C)=CCCC(C)=CCNC(=O)Cc1ccccc1 [Compound I-13]	–	65.3%	–
CC(C)=CCCC(C)=CCCC(C)=CCCC(C)=CCNC(=O)c1ccc([N+](=O)[O-])cc1 [Compound I-18]	–	75.1%	–
CC(C)=CCCC(C)=CCCC(C)=CCCC(C)=CCNC(=O)c1ccccn1 [Compound I-20]	24.2%	83.1%	–
CC(C)=CCCC(C)=CCCC(C)=CCCC(C)=CCNC(=O)c1cccnc1 [Compound I-21]	64.5%	99%	–
CC(C)=CCCC(C)=CCCC(C)=CCCC(C)=CCNC(=O)c1ccncc1 [Compound I-22, N-(3,7,11,15-Tetramethyl-2,6,10,14 hexadecatetraenyl)isonicotinamide]	86.1%	85.6%	–
CC(C)=CCCC(C)=CCCC(C)=CCCC(C)=CCNC(=O)c1cccs1 [Compound I-24]	11.8%	–	inhibition in vivo at 10 mg/kg (lesion formation; [1]): 62.1%
CC(C)=CCCC(C)=CCCC(C)=CCCC(C)=CCNC(=O)c1ccc[nH]1 [Compound I-26]	9.6%	–	inhibition in vivo at 10 mg/kg (lesion formation; [1]): 59.1%
CC(C)=CCCC(C)=CCCC(C)=CCCC(C)=CCNC(=O)c1cnccn1 [Compound I-28]	–	80.4%	–
CC(C)=CCCC(C)=CCCC(C)=CCCC(C)=CCNC(=O)Cc1ccccn1 [Compound I-29]	–	–	inhibition in vivo at 10 mg/kg (lesion formation; [1]): 64.3%
CC(C)=CCCC(C)=CCCC(C)=CCCC(C)=CCNC(=O)Cc1cccnc1 [Compound I-30]	85.1%	93.6%	Inhibition (%): rate of maximum inhibition of acid secretion (acid secretion; 20 mg/kg): 57.4%; Inhibition (%): rate of maximum inhibition of acid secretion (acid secretion; 50 mg/kg): 99.5%
CC(C)=CCCC(C)=CCCC(C)=CCCC(C)=CCNC(=O)Cc1c[nH]cn1 [Compound I-31]	–	91%	–
CC(C)=CCCC(C)=CCCC(C)=CCCC(C)=CCNC(=O)CC#N [Compound I-36]	56.4%	72.2%	–
CC(C)=CCCC(C)=CCCC(C)=CCCC(C)=CCNC(=O)N1CCOCC1 [Compound I-55, 1-[N-(3,7,11,15-Tetramethyl-2,6,10,14-hexadecatetraenyl)carbamoyl]morpholine]	–	–	inhibition in vivo at 10 mg/kg (lesion formation; Oral administration): 22.2%; inhibition in vivo at 10 mg/kg (lesion formation; [1]): 76.7%; Inhibition (%): rate of maximum inhibition of acid secretion (acid secretion; 20 mg/kg): 51.1%; Inhibition (%): rate of maximum inhibition of acid secretion (acid secretion; 50 mg/kg): 77.7%
CC(C)=CCCC(C)=CCCC(C)=CCCC(C)=CCNC(=O)N1CCCCC1 [Compound I-56]	–	79.4%	–
CC(C)=CCCC(C)=CCCC(C)=CCCC(C)=CCNC(N)=O [Compound I-57]	–	84%	inhibition in vivo at 10 mg/kg (lesion formation; Oral administration): 36.2%
CC(C)=CCCC(C)=CCCC(C)=CCCC(C)=CCNC(=O)N1CCN(C)CC1 [Compound I-59]	–	53.3%	–
CC(C)=CCCC(C)=CCCC(C)=CCCC(C)=CCNC(=O)N1CCN(Cc2ccc3c(c2)OCO3)CC1 [Compound I-62]	–	46.1%	–
CC(C)=CCCC(C)=CCCC(C)=CCCC(C)=CCNC(=O)NCCCN1CCOCC1 [Compound I-65]	–	35.5%	–
CC(C)=CCCC(C)=CCCC(C)=CCCC(C)=CCNC(=O)NCc1cccnc1 [Compound I-71]	44.2%	68.5%	–
CC(C)=CCCC(C)=CCCC(C)=CCCC(C)=CCNC(=O)N(C)C [Compound I-81, N,N-Dimethyl-N'-(3,7,11,15-tetramethyl-2,6,10,14-hexadecatetraenyl)urea]	23.9%	78.2%	–
CC(C)=CCCC(C)=CCCC(C)=CCCC(C)=CCNC(=O)Nc1ccccc1 [Compound I-82]	–	62.7%	–
CC(=O)CCC=C(C)CCC=C(C)CCC=C(C)CCC=C(C)C [GGA, Geranylgeranylacetone, reference compound]	37.7%	–	inhibition in vivo at 50 mg/kg (lesion formation; ip, Intraperitoneal administration, 50 mg/kg): 81%

Reference: patent publication US4900749A, “Isoprenoidamine compounds useful as antiulcer agents” (Shionogi & Co., Ltd., priority 1985, dated 1990)
